According to the supplement of paper PMC11061612:

Legend:
Carboplatin = compound: C1CC(C1)(C(=O)[O-])C(=O)[O-].N.N.[Pt+2] [Carboplatin]; details: max 10 µM
Procedure, shortened: (§1)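 Cancer cell lines were plated in 1536-well plates in 7.5 μl of DMEM/F12 or RPMI with 10% FBS and kept 24 hours at 37°C and 5% CO2 before 72 hours of dosing, with final DMSO typically 0.2%. CellTiter-Glo 2.0 luminescence measured viability, scaled between blank-well and DMSO-well means. Dose responses were fitted to a two-parameter logistic curve with a non-linear mixed effects model. This fit gives the single-agent IC50.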

AZD5363 = compound: C1CN(CCC1(C(=O)N[C@@H](CCO)C2=CC=C(C=C2)Cl)N)C3=NC=NC4=C3C=CN4 [AZD5363]; details: max 10 µM
Procedure, shortened: as §1

AZD1775 = compound: C=CCn1c(=O)c2cnc(Nc3ccc(N4CCN(C)CC4)cc3)nc2n1-c1cccc(C(C)(C)O)n1 [AZD1775]; details: max 3 µM
Procedure, shortened: as §1

Trametinib = compound: CC(=O)Nc1cccc(-n2c(=O)n(C3CC3)c(=O)c3c(Nc4ccc(I)cc4F)n(C)c(=O)c(C)c32)c1 [Trametinib]; details: max 1 µM
Procedure, shortened: as §1

Paclitaxel = compound: CC(=O)O[C@H]1C(=O)[C@@]2(C)[C@H]([C@H](OC(=O)c3ccccc3)[C@]3(O)C[C@H](OC(=O)[C@H](O)[C@@H](NC(=O)c4ccccc4)c4ccccc4)C(C)=C1C3(C)C)[C@]1(OC(C)=O)CO[C@@H]1C[C@@H]2O [Paclitaxel]; details: max 3 µM
Procedure, shortened: as §1

Palbociclib = compound: CC(=O)c1c(C)c2cnc(Nc3ccc(N4CCNCC4)cn3)nc2n(C2CCCC2)c1=O [Palbociclib]; details: max 10 µM
Procedure, shortened: as §1

AZD1390 = compound: CC(C)n1c(=O)n(C)c2cnc3cc(F)c(-c4ccc(OCCCN5CCCCC5)nc4)cc3c21 [AZD1390]; details: max 0.3 µM
Procedure, shortened: as §1

Venetoclax = compound: CC1(C)CCC(CN2CCN(c3ccc(C(=O)NS(=O)(=O)c4ccc(NCC5CCOCC5)c([N+](=O)[O-])c4)c(Oc4cnc5[nH]ccc5c4)c3)CC2)=C(c2ccc(Cl)cc2)C1 [Venetoclax]; details: max 1 µM
Procedure, shortened: as §1

Dasatinib = compound: CC1=C(C(=CC=C1)Cl)NC(=O)C2=CN=C(S2)NC3=CC(=NC(=N3)C)N4CCN(CC4)CCO [Dasatinib]; details: max 2 µM
Procedure, shortened: as §1

SG3199 = compound: CC1=CN2[C@@H](C1)C=NC3=CC(=C(C=C3C2=O)OC)OCCCCCOC4=C(C=C5C(=C4)N=C[C@@H]6CC(=CN6C5=O)C)OC [SG3199]; details: max 0.001 µM
Procedure, shortened: as §1

AZD2811 = compound: CCN(CCO)CCCOc1ccc2c(Nc3cc(CC(=O)Nc4cccc(F)c4)[nH]n3)ncnc2c1 [AZD2811]; details: max 1 µM
Procedure, shortened: as §1

SN-38 = compound: CCc1c2c(nc3ccc(O)cc13)-c1cc3c(c(=O)n1C2)COC(=O)[C@]3(O)CC [SN-38]; details: max 0.3 µM
Procedure, shortened: as §1

AZD0156 = compound: CN(C)CCCOc1ccc(-c2ccc3ncc4c(c3c2)n(C2CCOCC2)c(=O)n4C)cn1 [AZD0156]; details: max 3 µM
Procedure, shortened: as §1

AZD4320 = compound: CN(CC[C@H](CSC1=CC=CC=C1)NC2=C(C=C(C=C2)S(=O)(=O)NC(=O)C3=CC=C(C=C3)N4CCC(CC4)[C@H](C5=CC=CC=C5C6=CC=C(C=C6)Cl)O)S(=O)(=O)C(F)(F)F)CCO [AZD4320]; details: max 1 µM
Procedure, shortened: as §1

Alisertib = compound: COc1cc(Nc2ncc3c(n2)-c2ccc(Cl)cc2C(c2c(F)cccc2OC)=NC3)ccc1C(=O)O [Alisertib]; details: max 10 µM
Procedure, shortened: as §1

Etoposide = compound: COc1cc([C@@H]2c3cc4c(cc3[C@@H](O[C@@H]3O[C@@H]5CO[C@@H](C)O[C@H]5[C@H](O)[C@H]3O)[C@H]3COC(=O)[C@H]23)OCO4)cc(OC)c1O [Etoposide]; details: max 10 µM
Procedure, shortened: as §1

Gefitinib = compound: COc1cc2ncnc(Nc3ccc(F)c(Cl)c3)c2cc1OCCCN1CCOCC1 [Gefitinib]; details: max 10 µM
Procedure, shortened: as §1

Prexasertib = compound: COc1cccc(OCCCN)c1-c1cc(Nc2cnc(C#N)cn2)n[nH]1 [Prexasertib]; details: max 1 µM
Procedure, shortened: as §1

Doxorubicin = compound: COc1cccc2c1C(=O)c1c(O)c3c(c(O)c1C2=O)C[C@@](O)(C(=O)CO)C[C@@H]3O[C@H]1C[C@H](N)[C@H](O)[C@H](C)O1 [Doxorubicin]; details: max 1 µM
Procedure, shortened: as §1

AZD5153 = compound: COc1nnc2ccc(N3CCC(c4ccc(OCCN5CCN(C)C(=O)[C@H]5C)cc4)CC3)nn12 [AZD5153]; details: max 1 µM
Procedure, shortened: as §1

Lapatinib = compound: CS(=O)(=O)CCNCc1ccc(-c2ccc3ncnc(Nc4ccc(OCc5cccc(F)c5)c(Cl)c4)c3c2)o1 [Lapatinib]; details: max 10 µM
Procedure, shortened: as §1

AZD8186 = compound: C[C@@H](Nc1cc(F)cc(F)c1)c1cc(C(=O)N(C)C)cc2c(=O)cc(N3CCOCC3)oc12 [AZD8186]; details: max 10 µM
Procedure, shortened: as §1

Crizotinib = compound: C[C@@H](Oc1cc(-c2cnn(C3CCNCC3)c2)cnc1N)c1c(Cl)ccc(F)c1Cl [Crizotinib]; details: max 10 µM
Procedure, shortened: as §1

Savolitinib = compound: C[C@@H](c1ccc2nccn2c1)n1nnc2ncc(-c3cnn(C)c3)nc21 [Savolitinib]; details: max 1 µM
Procedure, shortened: as §1

AZD6738 = compound: C[C@@H]1COCCN1C2=NC(=NC(=C2)C3(CC3)[S@](=N)(=O)C)C4=C5C=CNC5=NC=C4 [AZD6738]; details: max 10 µM
Procedure, shortened: as §1

AZD5991 = compound: Cc1c2c(nn1C)CSCc1cc(n(C)n1)CSc1cc(c3ccccc3c1)OCCCc1c(C(=O)O)n(C)c3c-2c(Cl)ccc13 [AZD5991]; details: max 1 µM
Procedure, shortened: as §1

AZD7648 = compound: Cc1cc2ncnn2cc1Nc1ncc2c(n1)n(C1CCOCC1)c(=O)n2C [AZD7648]; details: max 10 µM
Procedure, shortened: as §1

Taselisib = compound: Cc1nc(-c2cn3c(n2)-c2ccc(-c4cnn(C(C)(C)C(N)=O)c4)cc2OCC3)n(C(C)C)n1 [Taselisib]; details: max 10 µM
Procedure, shortened: as §1

Selumetinib = compound: Cn1cnc2c(F)c(Nc3ccc(Br)cc3Cl)c(C(=O)NOCCO)cc21 [Selumetinib]; details: max 10 µM
Procedure, shortened: as §1

SRA737 = compound: N#Cc1cnc(Nc2cc(NC[C@H]3CNCCO3)c(C(F)(F)F)cn2)cn1 [SRA737]; details: max 10 µM
Procedure, shortened: as §1

MK-2206 = compound: NC1(c2ccc(-c3nc4ccn5c(=O)[nH]nc5c4cc3-c3ccccc3)cc2)CCC1 [MK-2206]; details: max 10 µM
Procedure, shortened: as §1

Gemcitabine = compound: Nc1ccn([C@@H]2O[C@H](CO)[C@@H](O)C2(F)F)c(=O)n1 [Gemcitabine]; details: max 0.3 µM
Procedure, shortened: as §1

[1] = compound: O=C(Nc1ccc2[nH]nc(-c3ccncc3)c2c1)[C@@H]1CCN(CC(=O)N2CCN(c3ccc(-c4ncccn4)cc3)CC2)C1; details: max 5 µM
Procedure, shortened: as §1

Olaparib = compound: O=C(c1cc(Cc2n[nH]c(=O)c3ccccc23)ccc1F)N1CCN(C(=O)C2CC2)CC1 [Olaparib]; details: max 10 µM
Procedure, shortened: as §1

5-Fluorouracil = compound: O=c1[nH]cc(F)c(=O)[nH]1 [5-Fluorouracil]; details: max 20 µM
Procedure, shortened: as §1

| Cell Line | IC50, cell viability 72 h (Carboplatin) | IC50, cell viability 72 h (AZD5363) | IC50, cell viability 72 h (AZD1775) | IC50, cell viability 72 h (Trametinib) | IC50, cell viability 72 h (Paclitaxel) | IC50, cell viability 72 h (Palbociclib) | IC50, cell viability 72 h (AZD1390) | IC50, cell viability 72 h (Venetoclax) | IC50, cell viability 72 h (Dasatinib) | IC50, cell viability 72 h (SG3199) | IC50, cell viability 72 h (AZD2811) | IC50, cell viability 72 h (SN-38) | IC50, cell viability 72 h (AZD0156) | IC50, cell viability 72 h (AZD4320) | IC50, cell viability 72 h (Alisertib) | IC50, cell viability 72 h (Etoposide) | IC50, cell viability 72 h (Gefitinib) | IC50, cell viability 72 h (Prexasertib) | IC50, cell viability 72 h (Doxorubicin) | IC50, cell viability 72 h (AZD5153) | IC50, cell viability 72 h (Lapatinib) | IC50, cell viability 72 h (AZD8186) | IC50, cell viability 72 h (Crizotinib) | IC50, cell viability 72 h (Savolitinib) | IC50, cell viability 72 h (AZD6738) | IC50, cell viability 72 h (AZD5991) | IC50, cell viability 72 h (AZD7648) | IC50, cell viability 72 h (Taselisib) | IC50, cell viability 72 h (Selumetinib) | IC50, cell viability 72 h (SRA737) | IC50, cell viability 72 h (MK-2206) | IC50, cell viability 72 h (Gemcitabine) | IC50, cell viability 72 h [1] | IC50, cell viability 72 h (Olaparib) | IC50, cell viability 72 h (5-Fluorouracil) |
| --- | --- | --- | --- | --- | --- | --- | --- | --- | --- | --- | --- | --- | --- | --- | --- | --- | --- | --- | --- | --- | --- | --- | --- | --- | --- | --- | --- | --- | --- | --- | --- | --- | --- | --- | --- |
| YH-13 (Glioblastoma) | > 10000 nM | > 10000 nM | > 3000 nM | > 1000 nM | 3.82 nM | > 10000 nM | > 300 nM | > 1000 nM | 837 nM | > 1 nM | > 1000 nM | 159 nM | > 3000 nM | > 1000 nM | > 10000 nM | > 10000 nM | > 10000 nM | 76.3 nM | > 1000 nM | 534 nM | > 10000 nM | 2850 nM | > 10000 nM | > 1000 nM | > 10000 nM | > 1000 nM | > 10000 nM | 2990 nM | > 10000 nM | > 10000 nM | > 10000 nM | 114 nM | > 5000 nM | > 10000 nM | > 20000 nM |
| NCI-H358 (Lung Adenocarcinoma) | > 10000 nM | > 10000 nM | > 3000 nM | 147 nM | 28.1 nM | > 10000 nM | > 300 nM | > 1000 nM | > 2000 nM | > 1 nM | > 1000 nM | > 300 nM | > 3000 nM | > 1000 nM | > 10000 nM | > 10000 nM | > 10000 nM | 46.6 nM | > 1000 nM | > 1000 nM | > 10000 nM | > 10000 nM | > 10000 nM | > 1000 nM | > 10000 nM | > 1000 nM | > 10000 nM | 3470 nM | > 10000 nM | > 10000 nM | > 10000 nM | > 300 nM | > 5000 nM | > 10000 nM | > 20000 nM |
| EFM-19 (Breast Carcinoma) | > 10000 nM | > 10000 nM | 2090 nM | > 1000 nM | 26.9 nM | > 10000 nM | > 300 nM | > 1000 nM | > 2000 nM | > 1 nM | > 1000 nM | 288 nM | > 3000 nM | > 1000 nM | > 10000 nM | > 10000 nM | > 10000 nM | > 1000 nM | > 1000 nM | > 1000 nM | > 10000 nM | > 10000 nM | > 10000 nM | > 1000 nM | > 10000 nM | > 1000 nM | > 10000 nM | 564 nM | > 10000 nM | > 10000 nM | > 10000 nM | > 300 nM | > 5000 nM | > 10000 nM | > 20000 nM |
| ACHN (Kidney Carcinoma) | > 10000 nM | > 10000 nM | 116 nM | > 1000 nM | 461 nM | 4940 nM | > 300 nM | > 1000 nM | 179 nM | > 1 nM | > 1000 nM | 12.7 nM | > 3000 nM | > 1000 nM | 9510 nM | 5500 nM | 3430 nM | 10.8 nM | 264 nM | 623 nM | 8520 nM | > 10000 nM | > 10000 nM | > 1000 nM | 970 nM | > 1000 nM | > 10000 nM | 6330 nM | > 10000 nM | 1580 nM | > 10000 nM | 20.1 nM | > 5000 nM | > 10000 nM | > 20000 nM |
| RF-48 (B-Cell Non-Hodgkin's Lymphoma) | > 10000 nM | > 10000 nM | 1450 nM | > 1000 nM | 19.9 nM | > 10000 nM | > 300 nM | > 1000 nM | > 2000 nM | > 1 nM | > 1000 nM | 21.2 nM | > 3000 nM | 24.7 nM | > 10000 nM | > 10000 nM | > 10000 nM | 132 nM | 424 nM | > 1000 nM | > 10000 nM | > 10000 nM | > 10000 nM | > 1000 nM | > 10000 nM | > 1000 nM | > 10000 nM | > 10000 nM | > 10000 nM | > 10000 nM | > 10000 nM | 82.7 nM | > 5000 nM | > 10000 nM | > 20000 nM |
